Experiment: storage stability with respect to degradation impurities (OXTP impurity)
Assay type: physicochemical
Details: for stability with respect to impurities such as OXTP impurity: stored in presence of desiccant

| SMILES | stability with respect to impurities such as OXTP impurity | degradation during storage leading to impurities such as OXTP impurity (during the storage) |
| --- | --- | --- |
| CC(=O)Oc1cc2c(s1)CCN(C(C(=O)C1CC1)c1ccccc1F)C2.Cl (racemic) [prasugrel hydrochloride, 5-[(1RS)-2-cyclopropyl-1-(2-fluorophenyl)-2-oxoethyl]-4,5,6,7-tetrahydrothieno[3,2-c]pyridin-2-yl acetate hydrochloride] | greater stability | – |
| CC(=O)Oc1cc2c(s1)CCN(C(C(=O)C1CC1)c1ccccc1F)C2 (stereo not drawn) [prasugrel, 5-(2-cyclopropyl-1-(2-fluorophenyl)-2-oxoethyl)-4,5,6,7-tetrahydrothieno[3,2-c]pyridin-2-yl acetate] | greater stability | degrades during the storage |

Source: patent publication US20130274284A1 (DR. REDDY'S LABORATORIES, INC., priority 2010, published 2013)
